Reference: patent US20070128217A1 (priority 2003, published 2007)

Columns and labels:
[1] = tested on: antibodies in sera from SARS patients (sera 1a, 1b, 2, 6, 37, 62, London, SARS-yellow, SARS-green); type: binding, human; set-up: Binding of serum 6 to linear peptides of protein X1 of SARS-CoV Urbani / Binding of serum 37 to linear peptides of protein X1 of SARS-CoV Urbani / Binding of serum 6 to looped/cyclic peptide (PEPSCAN-ELISA) / Binding of serum 37 to looped/cyclic peptide (PEPSCAN-ELISA) / Binding of serum 37 to looped/cyclic peptides of protein X1 of SARS-CoV Urbani / Binding of serum 6 to linear peptides of protein X2 / Binding of serum 37 to linear peptides of protein X2 / Binding of serum 37 to looped/cyclic peptides of protein X2 of SARS-CoV Urbani / Binding of serum 6 to linear peptides of protein M of SARS-CoV Urbani / Binding of serum 37 to linear peptides of protein M of SARS-CoV Urbani / Binding of serum 6 to looped/cyclic peptides of protein M of SARS-CoV Urbani / Binding of serum 37 to looped/cyclic peptides of protein M of SARS-CoV Urbani / Binding of serum 6 to linear peptides of protein X3 of SARS-CoV Urbani / Binding of serum 37 to linear peptides of protein X3 of SARS-CoV Urbani / Binding of serum 37 to looped/cyclic peptides of protein X3 of SARS-CoV Urbani / Binding of serum 6 to linear peptides of protein X4 of SARS-CoV Urbani / Binding of serum 37 to linear peptides of protein X4 of SARS-CoV Urbani / Binding of serum 37 to looped/cyclic peptides of protein X4 of SARS-CoV Urbani / Binding of serum 6 to linear peptides of protein X5 of SARS-CoV Urbani / Binding of serum 37 to linear peptides of protein X5 of SARS-CoV Urbani / Binding of serum 37 to looped/cyclic peptides of protein X5 of SARS-CoV Urbani / Binding of serum 6 to linear peptides of protein N of SARS-CoV Urbani / Binding of serum 37 to linear peptides of protein N of SARS-CoV Urbani / Binding of serum 6 to linear peptide (PEPSCAN-ELISA) / Binding of serum 1a to looped/cyclic peptides of protein N of SARS-CoV Urbani / Binding of serum 1b to looped/cyclic peptides of protein N of SARS-CoV Urbani / Binding of serum 2 to looped/cyclic peptides of protein N of SARS-CoV Urbani / Binding of serum 6 to looped/cyclic peptides of protein N of SARS-CoV Urbani / Binding of serum 37 to looped/cyclic peptides of protein N of SARS-CoV Urbani / Binding of serum 62 to looped/cyclic peptides of protein N of SARS-CoV Urbani / Binding of serum London to looped/cyclic peptides of protein N of SARS-CoV Urbani / Binding of serum SARS-green to looped/cyclic peptides of protein N of SARS-CoV Urbani: unit not given here
[2] = tested on: control sera (pooled serum of ten healthy LUMC hospital workers; commercial negative donor pooled serum from the Dutch bloodbank); type: binding, human; set-up: Binding of Control serum LUMC to linear peptides / Binding of Control serum Blood-bank to linear peptides / Binding of Control serum LUMC to looped peptides / Binding of Control Serum Blood-Bank to Looped peptides / Binding of Control serum LUMC to linear peptides of the protein M of SARS-CoV Urbani / Binding of Control serum Blood-bank to linear peptides of the protein M of SARS-CoV Urbani / Binding of Control serum LUMC to looped peptides of the protein M of SARS-CoV Urbani / Binding of Control Serum Blood-Bank to Looped peptides of the protein M of SARS-CoV Urbani: unit not given here
[3] = tested on: rabbit serum obtained by immunizing a rabbit with the SARS-CoV strain Frankfurt 1; type: binding; set-up: Binding of a rabbit serum to linear peptides / Binding of a rabbit serum to looped peptides / Rabbit serum linear peptides / Rabbit serum looped peptides / Binding of a rabbit serum to linear peptides of protein N of SARS-CoV Urbani (Rabbit serum linear peptides) / Binding of a rabbit serum to looped/cyclic peptides of protein N of SARS-CoV Urbani (Rabbit serum looped peptides): unit not given here
[4] = tested on: recombinant human anti-SARS-CoV antibody 03-018; type: binding; set-up: Binding of antibody 03-018 to linear peptides of the N protein of SARS-CoV Urbani / Binding of antibody 03-018 to looped/cyclic peptides of the N protein of SARS-CoV Urbani: unit not given here

Sequence | Binding of serum 1a to linear peptide (PEPSCAN-ELISA) [1] | Binding of serum 1a to looped/cyclic peptides of protein N of SARS-CoV Urbani [1] | Binding of serum 1b to linear peptide (PEPSCAN-ELISA) [1] | Binding of serum 1b to looped/cyclic peptides of protein N of SARS-CoV Urbani [1] | Binding of serum 2 to linear peptide (PEPSCAN-ELISA) [1] | Binding of serum 2 to looped/cyclic peptides of protein N of SARS-CoV Urbani [1] | Binding of serum 6 to looped/cyclic peptides of protein N of SARS-CoV Urbani [1] | Binding of serum 37 to looped/cyclic peptides of protein N of SARS-CoV Urbani [1] | Binding of serum 62 to looped/cyclic peptides of protein N of SARS-CoV Urbani [1] | Binding of serum London to looped/cyclic peptides of protein N of SARS-CoV Urbani [1] | Binding of serum SARS-green to looped/cyclic peptides of protein N of SARS-CoV Urbani [1] | Binding of serum SARS-yellow to looped/cyclic peptides of protein N of SARS-CoV Urbani [1] | Binding of Control Serum Blood-Bank to Looped peptides [2] | Binding of Control serum Blood-bank to linear peptides [2] | Binding of Control serum LUMC to linear peptides [2] | Binding of Control serum LUMC to looped peptides [2] | Binding of a rabbit serum to linear peptides of protein N of SARS-CoV Urbani (Rabbit serum linear peptides) [3] | Binding of a rabbit serum to looped/cyclic peptides of protein N of SARS-CoV Urbani (Rabbit serum looped peptides) [3] | Binding of antibody 03-018 to linear peptides of the N protein of SARS-CoV Urbani [4] | Binding of antibody 03-018 to looped/cyclic peptides of the N protein of SARS-CoV Urbani [4] | further results
GNFGDQDLIRQGTDY | 0.3 | 0.5 | 0.2 | 0.3 | 0.2 | 0.5 | 0.3 | 0.8 | 0.8 | 0.5 | 0.7 | 0.6 | 0.9 | 0.7 | 0.6 | 0.9 | 0.2 | 0.5 | 0.1 | 0.2 | Binding of serum 6 to linear peptide (PEPSCAN-ELISA) [1]: 0.2; Binding of serum 37 to linear peptide (PEPSCAN-ELISA) [1]: 0.8; Binding of serum 62 to linear peptide (PEPSCAN-ELISA) [1]: 0.7; Binding of serum London to linear peptide (PEPSCAN-ELISA) [1]: 0.6; Binding of serum SARS-green to linear peptide (PEPSCAN-ELISA) [1]: 0.5; Binding of serum SARS-yellow to linear peptide (PEPSCAN-ELISA) [1]: 0.8
GNSPARMASGGGETA | 0.3 | 0.2 | 0.1 | 0.1 | 0.2 | 0.3 | 0.1 | 0.2 | 0.2 | 0.3 | 0.3 | 0.0 | 0.5 | 0.8 | 0.7 | 0.4 | 0.1 | 0.0 | 0.2 | 0.2 | Binding of serum 6 to linear peptide (PEPSCAN-ELISA) [1]: 0.2; Binding of serum 37 to linear peptide (PEPSCAN-ELISA) [1]: 0.6; Binding of serum 62 to linear peptide (PEPSCAN-ELISA) [1]: 0.6; Binding of serum London to linear peptide (PEPSCAN-ELISA) [1]: 0.6; Binding of serum SARS-green to linear peptide (PEPSCAN-ELISA) [1]: 0.2; Binding of serum SARS-yellow to linear peptide (PEPSCAN-ELISA) [1]: 0.5
GPDDQIGYYRRATRR |  | 0.4 |  | 0.3 |  | 0.5 | 0.4 | 0.8 | 0.8 | 0.5 | 0.6 | 0.9 | 0.9 | 0.8 | 0.8 | 0.9 |  |  | 0.1 | 0.3 | Binding of serum 1a to linear peptides of protein N of SARS-CoV Urbani [1]: 0.2; Binding of serum 1b to linear peptides of protein N of SARS-CoV Urbani [1]: 0.1; Binding of serum 2 to linear peptides of protein N of SARS-CoV Urbani [1]: 0.2; Binding of serum 6 to linear peptides of protein N of SARS-CoV Urbani [1]: 0.2; Binding of serum 37 to linear peptides of protein N of SARS-CoV Urbani [1]: 0.6; Binding of serum 62 to linear peptides of protein N of SARS-CoV Urbani [1]: 0.6; Binding of serum London to linear peptides of protein N of SARS-CoV Urbani [1]: 0.4; Binding of serum SARS-green to linear peptides of protein N of SARS-CoV Urbani [1]: 0.3; Binding of serum SARS-yellow to linear peptides of protein N of SARS-CoV Urbani [1]: 0.6; Recognition of the peptide by the rabbit serum [3]: recognized
GPEASLPYGANKEGI |  | 0.3 |  | 0.2 |  | 0.4 | 0.2 | 0.6 | 0.5 | 0.4 | 0.5 | 0.3 | 0.6 | 0.9 | 0.9 | 0.8 | 0.1 | 0.3 | 0.1 | 0.2 | Binding of serum 1a to linear peptides of protein N of SARS-CoV Urbani [1]: 0.3; Binding of serum 1b to linear peptides of protein N of SARS-CoV Urbani [1]: 0.2; Binding of serum 2 to linear peptides of protein N of SARS-CoV Urbani [1]: 0.3; Binding of serum 6 to linear peptides of protein N of SARS-CoV Urbani [1]: 0.3; Binding of serum 37 to linear peptides of protein N of SARS-CoV Urbani [1]: 0.8; Binding of serum 62 to linear peptides of protein N of SARS-CoV Urbani [1]: 0.9; Binding of serum London to linear peptides of protein N of SARS-CoV Urbani [1]: 0.6; Binding of serum SARS-green to linear peptides of protein N of SARS-CoV Urbani [1]: 0.7; Binding of serum SARS-yellow to linear peptides of protein N of SARS-CoV Urbani [1]: 0.6
